Laboratory results: ChEMBL document CHEMBL1131589 (J Med Chem, 1998)
pKi: −log10 of the molar value.

What follows are compounds tested against Cannabinoid receptor 1 (Rattus norvegicus, UniProt P20272) (assay: Displacement of [3H]CP-55940 binding to Cannabinoid receptor 1 in rat brain membranes).
Chain of Cannabinoid receptor 1 (P20272 whole entry): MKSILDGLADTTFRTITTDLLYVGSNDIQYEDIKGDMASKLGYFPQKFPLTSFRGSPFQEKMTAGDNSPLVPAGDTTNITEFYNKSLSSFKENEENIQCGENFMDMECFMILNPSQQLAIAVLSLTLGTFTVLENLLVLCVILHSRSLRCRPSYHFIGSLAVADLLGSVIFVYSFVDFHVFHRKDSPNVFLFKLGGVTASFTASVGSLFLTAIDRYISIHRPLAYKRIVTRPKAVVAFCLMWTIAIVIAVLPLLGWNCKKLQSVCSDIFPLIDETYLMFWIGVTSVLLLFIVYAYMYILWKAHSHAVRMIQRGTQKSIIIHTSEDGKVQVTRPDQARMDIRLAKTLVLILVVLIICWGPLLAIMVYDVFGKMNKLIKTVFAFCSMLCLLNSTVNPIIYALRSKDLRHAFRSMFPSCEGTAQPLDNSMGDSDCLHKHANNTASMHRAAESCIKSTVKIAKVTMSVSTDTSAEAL
Assay type: cell membranes
In the case of `CCCCCCC(C)(C)c1ccc([C@H]2C[C@@H](O)C[C@H]3CC[C@@H](CO)C[C@@H]32)c(O)c1`, the pKi was 9.96.
Compound `CCCCCCC(C)(C)c1cc(O)c2c(c1)OC(C)(C)[C@@H]1CC=C(CO)C[C@@H]21` has a pKi of 9.64.
`CCCCCCC(C)(C)c1cc(O)c2c(c1)OC(C)(C)[C@H]1CC=C(CO)C[C@H]21` [DEXANABINOL] gave a pKi of 6.44.
